Calls of active or inactive are those of the source. The calls are words filed in the database; no cut-off is given here.
Experiments:
[1] = molecular target: T1, Integrin alpha-4/beta-1 (Homo sapiens, UniProt P05556+P13612); assay: Displacement of [125I]VCAM-Ig from human VLA4 alpha-4-beta-1 in Jurkat cells at 100 uM; format: cell-based
[2] = molecular target: T1, Integrin alpha-4/beta-1; assay: Binding affinity to human VLA4 alpha4beta1 in Jurkat cells; format: cell-based
[3] = molecular target: T2, Integrin alpha-4/beta-7 (Homo sapiens, UniProt P13612+P26010); assay: Binding affinity to human integrin alpha-4-beta-7 in Jurkat cells; format: cell-based
T2 sequence (P13612 whole entry): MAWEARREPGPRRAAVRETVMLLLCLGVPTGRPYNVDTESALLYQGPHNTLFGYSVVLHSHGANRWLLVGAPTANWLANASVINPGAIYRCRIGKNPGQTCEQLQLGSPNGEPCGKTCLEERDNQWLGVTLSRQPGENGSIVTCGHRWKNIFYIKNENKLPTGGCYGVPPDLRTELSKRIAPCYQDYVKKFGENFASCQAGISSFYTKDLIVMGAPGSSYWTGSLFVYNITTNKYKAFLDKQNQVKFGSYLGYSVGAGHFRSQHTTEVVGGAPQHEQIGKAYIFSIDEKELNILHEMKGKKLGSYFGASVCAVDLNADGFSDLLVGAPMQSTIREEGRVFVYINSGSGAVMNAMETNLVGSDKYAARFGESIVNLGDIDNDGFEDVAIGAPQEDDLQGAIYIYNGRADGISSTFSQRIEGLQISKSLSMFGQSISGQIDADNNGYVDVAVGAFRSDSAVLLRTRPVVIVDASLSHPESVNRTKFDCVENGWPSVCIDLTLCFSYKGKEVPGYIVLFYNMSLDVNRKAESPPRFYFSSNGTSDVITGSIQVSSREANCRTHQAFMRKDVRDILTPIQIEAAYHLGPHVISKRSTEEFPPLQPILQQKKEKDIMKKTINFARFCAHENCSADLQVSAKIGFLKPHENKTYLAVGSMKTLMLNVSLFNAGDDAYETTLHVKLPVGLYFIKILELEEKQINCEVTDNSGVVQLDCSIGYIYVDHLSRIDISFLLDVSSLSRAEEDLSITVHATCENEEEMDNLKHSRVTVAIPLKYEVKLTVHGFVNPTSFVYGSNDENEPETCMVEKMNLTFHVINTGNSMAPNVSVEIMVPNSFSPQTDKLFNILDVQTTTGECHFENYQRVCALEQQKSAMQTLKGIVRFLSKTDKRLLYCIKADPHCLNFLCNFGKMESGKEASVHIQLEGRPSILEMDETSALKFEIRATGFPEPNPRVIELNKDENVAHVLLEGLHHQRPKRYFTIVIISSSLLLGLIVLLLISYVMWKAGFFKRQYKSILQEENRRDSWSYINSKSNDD
T2 sequence (P26010 whole entry): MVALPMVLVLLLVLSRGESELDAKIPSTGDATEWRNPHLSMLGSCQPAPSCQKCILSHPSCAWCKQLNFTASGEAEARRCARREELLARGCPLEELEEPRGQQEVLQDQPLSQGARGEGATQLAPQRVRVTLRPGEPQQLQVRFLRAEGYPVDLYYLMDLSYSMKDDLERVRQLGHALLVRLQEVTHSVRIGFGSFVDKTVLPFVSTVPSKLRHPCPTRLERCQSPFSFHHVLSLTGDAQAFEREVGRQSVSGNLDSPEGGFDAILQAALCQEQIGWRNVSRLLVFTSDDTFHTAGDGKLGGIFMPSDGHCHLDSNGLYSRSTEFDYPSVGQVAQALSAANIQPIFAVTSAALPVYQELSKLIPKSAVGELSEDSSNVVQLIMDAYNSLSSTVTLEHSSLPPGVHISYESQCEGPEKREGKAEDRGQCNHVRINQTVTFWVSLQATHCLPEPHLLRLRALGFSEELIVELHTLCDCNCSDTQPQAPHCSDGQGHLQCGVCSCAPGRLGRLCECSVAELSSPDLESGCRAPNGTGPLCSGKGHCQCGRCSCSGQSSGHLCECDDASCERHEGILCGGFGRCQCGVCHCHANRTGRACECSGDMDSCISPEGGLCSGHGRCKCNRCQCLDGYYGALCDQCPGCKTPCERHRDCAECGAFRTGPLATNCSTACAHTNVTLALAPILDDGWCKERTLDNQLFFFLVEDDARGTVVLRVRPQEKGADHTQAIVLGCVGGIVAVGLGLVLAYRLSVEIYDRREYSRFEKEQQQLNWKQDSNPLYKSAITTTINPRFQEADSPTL

[4] = Clearance in Sprague-Dawley rat plasma at 1 mg/kg, iv by cassette-dosing assay; format: ADME, organism-based; design: dose 1 mg/kg, route intravenous
[5] = Half life in Sprague-Dawley rat plasma at 1 mg/kg, iv by cassette-dosing assay; format: ADME, organism-based; design: dose 1 mg/kg, route intravenous
[6] = Half life in Sprague-Dawley rat plasma at 2 mg/kg, po by cassette-dosing assay; format: ADME, organism-based; design: dose 2 mg/kg, route oral
[7] = Bioavailability in Sprague-Dawley rat at 2 mg/kg, po by cassette-dosing assay; format: ADME, organism-based; details: in vivo

T1 sequence (P05556 whole entry, one chain of several): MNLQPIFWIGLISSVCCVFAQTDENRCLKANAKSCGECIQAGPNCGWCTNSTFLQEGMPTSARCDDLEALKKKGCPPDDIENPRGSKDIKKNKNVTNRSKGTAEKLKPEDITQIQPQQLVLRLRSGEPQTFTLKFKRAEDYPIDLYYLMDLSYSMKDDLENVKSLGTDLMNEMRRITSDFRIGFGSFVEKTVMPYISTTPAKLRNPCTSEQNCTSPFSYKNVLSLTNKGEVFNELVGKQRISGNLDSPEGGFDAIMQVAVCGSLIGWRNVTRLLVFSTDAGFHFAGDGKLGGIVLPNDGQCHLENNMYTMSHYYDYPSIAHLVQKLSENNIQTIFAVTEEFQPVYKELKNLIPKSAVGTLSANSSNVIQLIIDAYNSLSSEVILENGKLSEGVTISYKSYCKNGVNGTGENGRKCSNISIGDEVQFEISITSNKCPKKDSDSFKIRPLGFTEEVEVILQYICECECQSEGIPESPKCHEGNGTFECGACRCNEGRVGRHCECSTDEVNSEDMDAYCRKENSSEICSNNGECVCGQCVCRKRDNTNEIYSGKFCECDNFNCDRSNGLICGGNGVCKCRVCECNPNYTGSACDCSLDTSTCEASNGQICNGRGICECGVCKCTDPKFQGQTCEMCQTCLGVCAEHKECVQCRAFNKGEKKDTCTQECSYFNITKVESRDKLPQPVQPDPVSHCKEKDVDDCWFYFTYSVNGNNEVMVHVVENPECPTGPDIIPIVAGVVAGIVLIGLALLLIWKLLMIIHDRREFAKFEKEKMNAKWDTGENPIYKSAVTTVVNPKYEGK

Row | SMILES | IC50 [2] | other results
1 | O=C(O)Cc1ccccc1NC(=O)[C@@H]1CCCN1S(=O)(=O)c1cc(Cl)cc(Cl)c1 |  | Activity [1]: 11%
2 | O=C(O)c1ccccc1NC(=O)[C@@H]1CCCN1S(=O)(=O)c1cc(Cl)cc(Cl)c1 |  | Activity [1]: 0%
3 | O=C(O)C1C2C=CC(C2)[C@@H]1NC(=O)[C@@H]1CCCN1S(=O)(=O)c1cc(Cl)cc(Cl)c1 (stereo partly drawn) [listing 1 of 2 here] | 2160 nM | 
4 | O=C(O)[C@@H]1C2CCC(C2)[C@@H]1NC(=O)[C@@H]1CCCN1S(=O)(=O)c1cc(Cl)cc(Cl)c1 (stereo partly drawn) | 1600 nM | 
5 | O=C(O)c1cccc(NC(=O)[C@@H]2CCCN2S(=O)(=O)c2cc(Cl)cc(Cl)c2)c1 |  | Activity [1]: 2%
6 | O=C(O)Cc1cccc(NC(=O)[C@@H]2CCCN2S(=O)(=O)c2cc(Cl)cc(Cl)c2)c1 |  | Activity [1]: 43%
7 | O=C(O)[C@H]1CCCC[C@H]1NC(=O)[C@@H]1CCCN1S(=O)(=O)c1cc(Cl)cc(Cl)c1 | 9460 nM | 
8 | O=C(CN(C1CCCCC1)S(=O)(=O)c1cc(Cl)cc(Cl)c1)NC1CCCCC1C(=O)O (stereo not drawn) |  | Activity [1]: inactive
9 | O=C(O)[C@H]1C2CCC(CC2)[C@@H]1NC(=O)[C@@H]1CCCN1S(=O)(=O)c1cc(Cl)cc(Cl)c1 | 2740 nM | 
10 | O=C(O)[C@H]1C2CCC(O2)[C@@H]1NC(=O)[C@@H]1CCCN1S(=O)(=O)c1cc(Cl)cc(Cl)c1 (stereo partly drawn) | 25600 nM | 

More lines, in order of falling IC50 [2], values ahead:

Row | IC50 [2] | SMILES | other results
11 | 1490 nM | O=C(O)C1C2CCC(C2)[C@H]1NC(=O)[C@@H]1CCCN1S(=O)(=O)c1cc(Cl)cc(Cl)c1 (stereo partly drawn) [listing 2 of 2 here] | 
12 | 657 nM | O=C(O)C1C2C=CC(C2)[C@@H]1NC(=O)[C@@H]1CCCN1S(=O)(=O)c1cc(Cl)cc(Cl)c1 (stereo partly drawn) [listing 2 of 2 here] | 
13 | 525 nM | O=C(O)[C@H]1CCCC[C@@H]1NC(=O)[C@@H]1CCCN1S(=O)(=O)c1cc(Cl)cc(Cl)c1 | 
14 | 462 nM | CC(C)[C@@H](C(=O)NC1CCCCC1C(=O)O)N(C)S(=O)(=O)c1cc(Cl)cc(Cl)c1 (stereo partly drawn) | 
15 | 322 nM | O=C(O)C1C2CCC(C2)[C@@H]1NC(=O)[C@@H]1CCCN1S(=O)(=O)c1cc(Cl)cc(Cl)c1 (stereo partly drawn) [listing 2 of 2 here] | 
16 | 299 nM | O=C(O)C1C2CCC(C2)[C@H]1NC(=O)[C@@H]1CCCN1S(=O)(=O)c1cc(Cl)cc(Cl)c1 (stereo partly drawn) [listing 1 of 2 here] | 
17 | 95 nM | O=C(O)C1C2CCC(C2)[C@@H]1NC(=O)[C@@H]1CCCN1S(=O)(=O)c1cc(Cl)cc(Cl)c1 (stereo partly drawn) [listing 1 of 2 here] | 
18 | 54 nM | O=C(O)[C@H]1C2CCC(C2)[C@@H]1NC(=O)[C@@H]1CCCN1S(=O)(=O)c1cc(Cl)cc(Cl)c1 (stereo partly drawn) | IC50 [3]: 13000 nM; clearance [4]: 3.3 mL/min/kg; half-life [5]: 1.9 h; half-life [6]: 1.7 h; bioavailability [7]: 49%

From ChEMBL document CHEMBL1146302, “Highly constrained bicyclic VLA-4 antagonists” (Bioorg Med Chem Lett, 2007)
